# Reference: US9963452B2, “Methods, compounds, and compositions for inhibition of ROS” (AUGUSTA PHARMACEUTICALS INC., priority 2013, dated 2018)
# Where two headings read alike, the source gives them in different places.
# How the values were obtained:
# ROS [1] = target: T1, ROS (Homo sapiens, UniProt P08922); conditions: reported in background; cited from earlier work
# glioblastoma cell lines = assay: Glioblastoma growth inhibition by Xalkori (cell-based assay, FIG. 3); conditions: depending on the cell line (FIG. 3)
# Protocol: Five tumor-derived cell lines were treated with the ROS inhibitor compounds and cell survival was monitored to determine the cancer prohibition effects of the compounds. The cell lines included HeLa, a cervical cancer cell line, and four glioblastoma cell lines U138, U87, LN18, and U118. The basic protocol for the in-vitro cell survival assay is the same for all five cell lines. In particular, the cells were seeded in 96-well plates at 2-5×10^3 cells/well (cell line dependent) in culture medium. The cells were grown for 2 days before the compounds were dissolved in DMSO and added to final concentrations of 100 uM, 10 uM, or 1 uM (DMSO final concentration 0.5%). The cell culture was then assayed one day after the addition of the compounds. The assay used Alamar blue as a redox-sensitive dye that interrogates mitochondrial fitness of cells, and these assays provided a readout for cell proliferation and viability. The raw values were normalized to an average of several vehicle control wells and are presented as percent decrease in proliferation/viability, which is converted to half maximal effective concentration (EC50) values.
# FIG. 3: Potency, selectivity and growth inhibitory effects of Xalkori in in vitro kinase and cell-based assays. […] U138 and U118 have been documented to express aberrant ROS (FIG-ROS fusion). […]
# EGFR = target: T2, EGFR (Homo sapiens, UniProt P00533); assay: In vitro EGFR enzymatic reaction assay (HTRF, Cisbio); type: biochemical
# T2 construct: ROS or EGFR enzyme, 0.008 ng/ul
# T2 sequence (P00533 25-1210, species assumed): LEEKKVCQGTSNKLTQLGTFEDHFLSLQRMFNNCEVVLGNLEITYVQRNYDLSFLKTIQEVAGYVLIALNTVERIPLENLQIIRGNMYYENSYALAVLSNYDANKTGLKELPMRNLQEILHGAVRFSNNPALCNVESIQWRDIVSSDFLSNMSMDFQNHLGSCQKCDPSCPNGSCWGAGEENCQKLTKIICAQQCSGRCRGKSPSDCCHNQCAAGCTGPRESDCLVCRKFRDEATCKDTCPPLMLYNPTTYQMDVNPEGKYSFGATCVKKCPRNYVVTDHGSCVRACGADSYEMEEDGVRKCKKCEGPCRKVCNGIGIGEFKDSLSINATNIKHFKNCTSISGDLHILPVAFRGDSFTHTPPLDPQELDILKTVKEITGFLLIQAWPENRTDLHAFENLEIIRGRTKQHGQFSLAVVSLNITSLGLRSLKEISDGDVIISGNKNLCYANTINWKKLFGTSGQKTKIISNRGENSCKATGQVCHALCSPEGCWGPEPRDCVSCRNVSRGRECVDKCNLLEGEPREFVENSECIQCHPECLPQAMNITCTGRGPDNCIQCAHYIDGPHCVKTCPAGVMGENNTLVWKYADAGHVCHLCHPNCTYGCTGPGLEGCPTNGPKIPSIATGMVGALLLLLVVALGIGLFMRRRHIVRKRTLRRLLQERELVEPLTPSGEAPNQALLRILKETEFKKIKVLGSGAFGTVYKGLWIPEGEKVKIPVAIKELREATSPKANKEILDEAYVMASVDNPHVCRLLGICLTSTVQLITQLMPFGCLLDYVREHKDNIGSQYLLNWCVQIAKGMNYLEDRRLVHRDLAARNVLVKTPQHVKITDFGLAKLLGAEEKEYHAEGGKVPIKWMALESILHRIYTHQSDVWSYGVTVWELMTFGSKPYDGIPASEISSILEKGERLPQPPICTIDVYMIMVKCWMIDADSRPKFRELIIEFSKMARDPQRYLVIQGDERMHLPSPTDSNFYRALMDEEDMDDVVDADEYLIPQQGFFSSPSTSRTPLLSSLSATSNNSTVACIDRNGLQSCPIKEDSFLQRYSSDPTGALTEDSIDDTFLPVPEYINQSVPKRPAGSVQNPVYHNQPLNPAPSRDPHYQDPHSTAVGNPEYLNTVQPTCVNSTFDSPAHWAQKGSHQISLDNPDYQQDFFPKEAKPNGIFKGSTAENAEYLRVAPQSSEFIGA
# ROS [2] = target: T1, ROS; assay: In vitro ROS enzymatic reaction assay (HTRF, Cisbio); type: biochemical; design: ROS or EGFR enzyme, 0.008 ng/ul; conditions: for inhibition at 5 µM: ROS kinase, compound at 5 uM, read-out: Kinase Inhib. 5 uM (%)
# Protocol: The ROS enzymatic reactions were carried out with a high throughput screening platform for phosphor-detection of kinase activity. This platform based on homogeneous time resolved fluorescence (HTRF) technology from Cisbio Bioassays, Inc. (Cisbio). […] The reaction was allowed to proceed for 30 minutes at room temperature. An equal volume of detection buffer was then added to the reaction mix.
# T1 sequence (P08922 28-2347): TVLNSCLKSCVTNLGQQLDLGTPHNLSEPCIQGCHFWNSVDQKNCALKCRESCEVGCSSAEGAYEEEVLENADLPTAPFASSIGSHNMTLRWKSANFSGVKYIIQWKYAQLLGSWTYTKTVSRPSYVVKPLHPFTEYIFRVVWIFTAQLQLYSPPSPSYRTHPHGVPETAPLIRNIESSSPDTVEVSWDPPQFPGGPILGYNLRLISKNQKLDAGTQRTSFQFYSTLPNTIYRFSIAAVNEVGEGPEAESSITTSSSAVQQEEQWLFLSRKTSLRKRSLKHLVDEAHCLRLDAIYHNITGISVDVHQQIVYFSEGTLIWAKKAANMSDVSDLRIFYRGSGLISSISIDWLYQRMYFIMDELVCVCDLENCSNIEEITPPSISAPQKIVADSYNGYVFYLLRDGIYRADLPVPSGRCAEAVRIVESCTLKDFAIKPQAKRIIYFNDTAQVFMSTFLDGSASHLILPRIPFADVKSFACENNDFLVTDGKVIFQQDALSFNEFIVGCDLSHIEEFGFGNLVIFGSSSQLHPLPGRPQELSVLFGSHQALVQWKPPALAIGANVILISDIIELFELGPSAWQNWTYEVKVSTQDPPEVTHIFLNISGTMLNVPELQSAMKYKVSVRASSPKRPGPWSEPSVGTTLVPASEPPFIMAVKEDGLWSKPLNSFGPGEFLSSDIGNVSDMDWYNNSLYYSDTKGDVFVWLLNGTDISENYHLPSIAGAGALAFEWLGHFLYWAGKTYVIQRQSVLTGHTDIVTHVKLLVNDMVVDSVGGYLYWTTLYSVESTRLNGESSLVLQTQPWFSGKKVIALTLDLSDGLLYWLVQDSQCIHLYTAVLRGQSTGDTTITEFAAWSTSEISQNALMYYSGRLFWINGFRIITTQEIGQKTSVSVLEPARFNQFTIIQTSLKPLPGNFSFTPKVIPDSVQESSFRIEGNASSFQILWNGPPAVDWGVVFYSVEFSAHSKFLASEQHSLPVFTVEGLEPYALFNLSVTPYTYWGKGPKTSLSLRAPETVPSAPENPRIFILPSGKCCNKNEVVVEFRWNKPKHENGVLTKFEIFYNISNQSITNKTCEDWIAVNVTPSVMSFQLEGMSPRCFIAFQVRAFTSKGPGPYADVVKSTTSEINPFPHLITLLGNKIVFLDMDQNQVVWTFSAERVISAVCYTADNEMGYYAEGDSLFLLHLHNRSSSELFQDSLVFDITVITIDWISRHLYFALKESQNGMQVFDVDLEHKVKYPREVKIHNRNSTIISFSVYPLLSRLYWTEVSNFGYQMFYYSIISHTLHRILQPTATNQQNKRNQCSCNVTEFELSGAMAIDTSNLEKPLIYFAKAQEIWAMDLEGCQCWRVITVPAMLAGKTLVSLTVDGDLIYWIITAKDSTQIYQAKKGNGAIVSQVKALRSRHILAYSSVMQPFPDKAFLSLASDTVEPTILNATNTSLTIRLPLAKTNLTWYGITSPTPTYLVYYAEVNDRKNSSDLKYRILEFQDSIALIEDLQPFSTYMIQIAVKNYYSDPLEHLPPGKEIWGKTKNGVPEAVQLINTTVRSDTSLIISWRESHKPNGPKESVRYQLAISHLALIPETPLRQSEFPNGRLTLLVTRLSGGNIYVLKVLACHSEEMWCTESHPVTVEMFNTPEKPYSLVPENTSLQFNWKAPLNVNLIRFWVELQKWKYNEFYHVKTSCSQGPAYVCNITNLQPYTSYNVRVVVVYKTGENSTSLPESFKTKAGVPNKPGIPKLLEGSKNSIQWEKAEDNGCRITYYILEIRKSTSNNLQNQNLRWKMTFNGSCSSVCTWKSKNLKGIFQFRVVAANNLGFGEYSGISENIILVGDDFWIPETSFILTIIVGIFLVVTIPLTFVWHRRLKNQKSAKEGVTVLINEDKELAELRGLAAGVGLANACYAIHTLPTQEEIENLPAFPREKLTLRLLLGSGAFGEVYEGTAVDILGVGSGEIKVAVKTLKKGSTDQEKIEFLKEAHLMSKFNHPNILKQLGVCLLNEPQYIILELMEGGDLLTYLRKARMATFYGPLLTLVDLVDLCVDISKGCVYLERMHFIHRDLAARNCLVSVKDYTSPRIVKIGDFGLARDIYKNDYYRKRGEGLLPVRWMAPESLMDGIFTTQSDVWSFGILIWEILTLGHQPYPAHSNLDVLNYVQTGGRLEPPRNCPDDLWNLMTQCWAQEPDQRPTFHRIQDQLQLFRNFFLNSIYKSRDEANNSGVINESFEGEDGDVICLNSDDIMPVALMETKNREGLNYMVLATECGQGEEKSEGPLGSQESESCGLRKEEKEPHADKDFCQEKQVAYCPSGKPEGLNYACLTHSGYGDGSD
EC50 (glioblastoma cell lines) [nM],IC50 (EGFR) [nM],IC50 (ROS [2]) [nM],inhibition at 5 µM (ROS [2]) [%],SMILES,IC50 (ROS [1]) [nM]
,,,,Cc1cc(O)cc(-c2nn(CC#N)cc2-c2ccnc(-c3cccnc3)c2)c1 [KIST301080],209
12 to 20,,,,C[C@@H](Oc1cc(-c2cnn(C3CCNCC3)c2)cnc1N)c1c(Cl)ccc(F)c1Cl [Crizotinib],
,> 5000,330,100,CN1CCN(C(=O)c2cccc(Nc3ncc(Cl)c(Nc4ccc5ncsc5c4)n3)c2)CC1 [drawing 329],
,> 50000,1140,79.3,c1cc(Nc2cc(C3CC3)[nH]n2)nc(Nc2ccc(NCc3cc(C4OCCO4)c(C4OCCO4)s3)cc2)n1 [drawing 300],
